Source: US20080021071A1, “3-{4-(Pyridin-3-Yl) Phenyl}-5-(1H-1,2,3-Triazol-1-Ylmethyl)-1,3-Oxazolidin-2-Ones as Antibacterial Agents” (ASTRAZENECA AB, priority 2004, published 2008)
Values after ≈ are worked out from the molar mass of the structure shown. Structures can show the parent of a compound that is named as a salt.

Tests used:
[1] = test system: Staphylococcus aureus MSQS; assay: MIC, agar-dilution, Staphylococcus aureus MSQS; type: cell-based; conditions: Staphylococcus aureus MSQS (methicillin sensitive and quinolone sensitive)
Procedure: (§1) The following results were obtained on a standard in-vitro test system. The activity is described in terms of the minimum inhibitory concentration (MIC) determined by the agar-dilution technique with an inoculum size of 10^4 CFU/spot. Typically, compounds are active in the range 0.01 to 256 μg/ml.
(§2) Staphylococci were tested on agar, using an inoculum of 10^4 CFU/spot and an incubation temperature of 37° C. for 24 hours—standard test conditions for the expression of methicillin resistance.

[2] = test system: Staphylococcus aureus MRQR; assay: MIC, agar-dilution, Staphylococcus aureus MRQR; type: cell-based; conditions: Staphylococcus aureus MRQR (methicillin resistant and quinolone resistant)
Procedure: as §1, §2

[3] = test system: Haemophilus influenzae; assay: MIC, Haemophilus influenzae; type: cell-based
Procedure: as §1
(§3) Streptococci and enterococci were tested on agar supplemented with 5% defibrinated horse blood, an inoculum of 10^4 CFU/spot and an incubation temperature of 37° C. in an atmosphere of 5% carbon dioxide for 48 hours—blood is required for the growth of some of the test organisms. Fastidious Gram negative organisms were tested in Mueller-Hinton broth, supplemented with hemin and NAD, grown aerobically for 24 hours at 37° C., and with an innoculum of 5×10^4 CFU/well.

[4] = test system: Linezolid Resistant Streptococcus pneumoniae; assay: MIC, Linezolid Resistant Streptococcus pneumoniae; type: cell-based
Procedure: as §1, §3

[5] = test system: Streptococcus pneumoniae; assay: MIC, Streptococcus pneumoniae; type: cell-based
Procedure: as §1, §3

[6] = molecular target: T1, MAO-A (Homo sapiens, UniProt P21397); assay: MAO-A inhibition, standard in-vitro assay, human liver enzyme expressed in yeast; type: biochemical
T1 construct: made in house; host or cells: yeast
T1 sequence (P21397 1-527): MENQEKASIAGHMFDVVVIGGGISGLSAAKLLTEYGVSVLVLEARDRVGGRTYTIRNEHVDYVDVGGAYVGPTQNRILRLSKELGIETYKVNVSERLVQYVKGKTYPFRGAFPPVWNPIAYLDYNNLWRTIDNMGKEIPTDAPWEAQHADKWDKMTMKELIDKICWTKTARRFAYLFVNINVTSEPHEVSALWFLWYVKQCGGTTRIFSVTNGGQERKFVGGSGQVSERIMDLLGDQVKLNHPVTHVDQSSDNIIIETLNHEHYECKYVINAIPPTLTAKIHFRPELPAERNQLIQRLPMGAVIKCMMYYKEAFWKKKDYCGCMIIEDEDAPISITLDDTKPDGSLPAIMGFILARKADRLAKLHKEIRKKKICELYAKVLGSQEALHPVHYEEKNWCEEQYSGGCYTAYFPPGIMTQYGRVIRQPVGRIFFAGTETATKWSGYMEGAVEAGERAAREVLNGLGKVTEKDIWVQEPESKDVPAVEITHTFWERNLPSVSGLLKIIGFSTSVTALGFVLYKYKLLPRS
Procedure: The activity of the compounds of the invention against MAO-A was tested using a standard in-vitro assay based on human liver enzyme expressed in yeast as described in Biochem. Biophys. Res. Commun. 1991, 181, 1084-1088. Compounds of the invention typically give Ki values of >5 μM when measured in such an assay as above.

[7] = equilibrium solubility in pH 7.4 phosphate buffer; type: physicochemical; conditions: aqueous buffer, thermodynamic from solid
Description: It will be understood that parameters such as solubility may be measured by any suitable technique known in the art.

Row | SMILES | melting point | Ki [6] [µM] | other results
1 | O=C1O[C@@H](Cn2ccnn2)CN1c1ccc(-c2ccc(C(O)CN3CCOCC3)nc2)c(F)c1 (stereo partly drawn) (as salt: hydrochloride) [Example 1, (5R)-3-{3-Fluoro-4-[6-(1-hydroxy-2-morpholin-4-ylethyl)pyridin-3-yl]phenyl}-5-(1H-1,2,3-triazol-1-ylmethyl)-1,3-oxazolidin-2-one] | > 194 °C (dec.) |  | 
2 | CN(C)CC(O)c1ccc(-c2ccc(N3C[C@H](Cn4ccnn4)OC3=O)cc2F)cn1 (stereo partly drawn) (as salt: hydrochloride) [Example 2, (5R)-3-(4-{6-[2-(Dimethylamino)-1-hydroxyethyl]pyridin-3-yl}-3-fluorophenyl)-5-(1H-1,2,3-triazol-1-ylmethyl)-1,3-oxazolidin-2-one] | > 115 °C (dec.) |  | 
3 | CC(C)NCC(O)c1ccc(-c2ccc(N3C[C@H](Cn4ccnn4)OC3=O)cc2F)cn1 (stereo partly drawn) (as salt: hydrochloride) [Example 3, (5R)-3-(3-Fluoro-4-{6-[1-hydroxy-2-(isopropylamino)ethyl]pyridin-3-yl}phenyl)-5-(1H-1,2,3-triazol-1-ylmethyl)-1,3-oxazolidin-2-one] | > 170 °C (dec.) |  | 
4 | O=C1O[C@@H](Cn2ccnn2)CN1c1ccc(-c2ccc(C(O)CN3CCOCC3)nc2)c(F)c1 (stereo partly drawn) [Example 1, (5R)-3-{3-Fluoro-4-[6-(1-hydroxy-2-morpholin-4-ylethyl)pyridin-3-yl]phenyl}-5-(1H-1,2,3-triazol-1-ylmethyl)-1,3-oxazolidin-2-one] |  | 94 | MIC [1]: 1 µg/mL (≈ 2.13 µM); MIC [2]: 1 µg/mL (≈ 2.13 µM); MIC [3]: 4 µg/mL (≈ 8.54 µM); MIC [4]: 2 µg/mL (≈ 4.27 µM); MIC [5]: 0.25 µg/mL (≈ 0.534 µM)
5 | O=C1O[C@@H](Cn2ccnn2)CN1c1ccc(-c2ccc(C(O)CO)nc2)c(F)c1 (stereo partly drawn) [Example 4, (5R)-3-{4-[6-(1,2-Dihydroxyethyl)pyridin-3-yl]-3-fluorophenyl}-5-(1H-1,2,3-triazol-1-ylmethyl)-1,3-oxazolidin-2-one] | 175 °C | 48 | solubility thermodynamic [7]: 210 µM (≈ 83.9 µg/mL)
6 | CC(C)(O)c1ccc(-c2ccc(N3C[C@H](Cn4ccnn4)OC3=O)cc2F)cn1 [Example 5, (5R)-3-{3-Fluoro-4-[6-(1-hydroxy-1-methylethyl)pyridin-3-yl]phenyl}-5-(1-1,2,3-triazol-1-ylmethyl)-1,3-oxazolidin-2-one] | 180 °C |  | 
7 | CN(Cc1ccc(-c2ccc(N3C[C@H](Cn4ccnn4)OC3=O)cc2F)cn1)CC(O)CO (stereo partly drawn) [Example 6, (5R)-3-[4-(6-{[(2,3-Dihydroxypropyl)(methyl)amino]methyl}pyridin-3-yl)-3-fluorophenyl]-5-(1-1,2,3-triazol-1-ylmethyl)-1,3-oxazolidin-2-one] | 123 °C |  | 
8 | CN(CCO)Cc1ccc(-c2ccc(N3C[C@H](Cn4ccnn4)OC3=O)cc2F)cn1 [Example 7, (5R)-3-[3-Fluoro-4-(6-{[(2-hydroxyethyl)(methyl)amino]methyl}pyridin-3-yl)phenyl]-5-(1H-1,2,3-triazol-1-ylmethyl)-1,3-oxazolidin-2-one] | 137 °C |  | 
9 | CN(C)Cc1ccc(-c2ccc(N3C[C@H](Cn4ccnn4)OC3=O)cc2F)cn1 [Example 8] | 160 °C | 15 | 
10 | O=C1O[C@@H](Cn2ccnn2)CN1c1ccc(-c2ccc(CN3CCOCC3)nc2)c(F)c1 [Example 9, (5R)-3-{3-Fluoro-4-[6-(morpholin-4-ylmethyl)pyridin-3-yl]phenyl}-5-(1H-1,2,3-triazol-1-ylmethyl)-1,3-oxazolidin-2-one] | 175 °C |  | 
11 | C[C@@H](O)c1ccc(-c2ccc(N3C[C@H](Cn4ccnn4)OC3=O)cc2F)cn1 [Example 10, (5R)-3-(3-Fluoro-4-{6-[(1R)-1-hydroxyethyl]pyridin-3-yl}phenyl)-5-(1H-1,2,3-triazol-1-ylmethyl)-1,3-oxazolidin-2-one] | 190 °C |  | 
12 | C[C@H](O)c1ccc(-c2ccc(N3C[C@H](Cn4ccnn4)OC3=O)cc2F)cn1 [Example 11, (5R)-3-(3-Fluoro-4-{6-[(1S)-1-hydroxyethyl]pyridin-3-yl}phenyl)-5-(1H-1,2,3-triazol-1-ylmethyl)-1,3-oxazolidin-2-one] | 183 °C |  | 
13 | O=C(OCc1ccc(-c2ccc(N3C[C@H](Cn4ccnn4)OC3=O)cc2F)cn1)N1CCOCC1 [Example 13, (5-{2-Fluoro-4-[(5R)-2-oxo-5-(1H-1,2,3-triazol-1-ylmethyl)-1,3-oxazolidin-3-yl]phenyl}pyridin-2-yl)methyl morpholine-4-carboxylate] | 131 to 133 °C |  | 
14 | CC(=O)CC(O)c1ccc(-c2ccc(N3C[C@H](Cn4ccnn4)OC3=O)cc2F)cn1 (stereo partly drawn) [Example 14, (5R)-3-{3-Fluoro-4-[6(1-hydroxy-3-oxobutyl)pyridin-3-yl]phenyl}-5-(1H-1,2,3-triazol-1-ylmethyl)-1,3-oxazolidin-2-one] | 130 to 135 °C |  | 
15 | O=C1O[C@@H](Cn2ccnn2)CN1c1ccc(-c2ccc(C(O)C3CC3)nc2)c(F)c1 (stereo partly drawn) [Example 16, (5R)-3-(4-{6-[Cyclopropyl(hydroxy)methyl]pyridin-3-yl}-3-fluorophenyl)-5-(1H-1,2,3-triazol-1-ylmethyl)-1,3-oxazolidin-2-one] | 160 to 163 °C |  | 
16 | Cc1cnc(C)n1CC(O)c1ccc(-c2ccc(N3C[C@H](Cn4ccnn4)OC3=O)cc2F)cn1 (stereo partly drawn) [Example 20, (5R)-3-(4-{6-[2-(2,5-Dimethyl-1H-imidazol-1-yl)-1-hydroxyethyl]pyridin-3-yl}-3-fluorophenyl)-5-(1H-1,2,3-triazol-1-ylmethyl)-1,3-oxazolidin-2-one] | 195 to 200 °C |  | 
17 | N#Cc1ccc(-c2ccc(N3C[C@H](Cn4ccnn4)OC3=O)cc2F)cn1 [Ref Example 1, 5-{2-Fluoro-4-[(5R)-2-oxo-5-(1H-1,2,3-triazol-1-ylmethyl)-1,3-oxazolidin-3-yl]phenyl}pyridine-2-carbonitrile] |  | < 0.3 | 
18 | Cc1ccc(-c2ccc(N3C[C@H](Cn4ccnn4)OC3=O)cc2F)cn1 [Ref Example 2, (5R)-3-[3-Fluoro-4-(6-methylpyridin-3-yl)phenyl]-5-(1H-1,2,3-triazol-1-ylmethyl)-1,3-oxazolidin-2-one] |  | 0.6 | 
19 | O=C1O[C@@H](Cn2ccnn2)CN1c1ccc(-c2ccc(CO)nc2)c(F)c1 [Ref Example 3, (5R)-3-{3-Fluoro-4-[6-(hydroxymethyl)pyridin-3-yl]phenyl}-5-(1H-1,2,3-triazol-1-ylmethyl)-1,3-oxazolidin-2-one] | 177 °C | 4.8 | 
20 | O=C1O[C@@H](Cn2ccnn2)CN1c1ccc(-c2cccnc2)c(F)c1 [Ref Example 4, (5R)-3-(3-Fluoro-4-pyridin-3-ylphenyl)-5-(1H-1,2,3-triazol-1-ylmethyl)-1,3-oxazolidin-2-one] |  | < 0.3 | 
21 | Cc1cn(C[C@H]2CN(c3ccc(-c4ccc(C#N)nc4)c(F)c3)C(=O)O2)nn1 [Ref Example 7, 5-(2Fluoro-4-{(5R)-5-[(4-methyl-1H-1,2,3-triazol-1-yl)methyl]-2-oxo-1,3-oxazolidin-3-yl}phenyl)pyridine-2-carbonitrile] | 210 to 212 °C | 3.65 | 
22 | Cn1nnc(-c2ccc(-c3ccc(N4C[C@H](Cn5ccnn5)OC4=O)cc3F)cn2)n1 [Reference Example 6, (5R)-3-(3-Fluoro-4-(6-(2-methyl-2H-tetrazol-5-yl)pyrid-3-yl)phenyl)-5-(1H-1,2,3-triazol-1-ylmethyl)-1,3-oxazolidin-2-one, reference compound] |  |  | solubility thermodynamic [7]: < 7.1 µM
